Reference: patent US20180140578A1, “METHODS AND COMPOSITIONS FOR THE DIAGNOSIS AND SELECTIVE TREATMENT OF CANCER” (Board of Regents of the University of Texas System, priority 2016, published 2018)
Like-named read-outs stand apart in the source and are kept apart here.

How the values were obtained:
RBM39-Nluc = target: T1, RBM39-Nluc (Homo sapiens, UniProt Q14498+Q66K64); test: RBM39-Nluc degradation by Nano-Glo luciferase assay; assay type: cell-based; conditions: H1155 RBM39-Nluc cells; read-out: decrease in RBM39-Nluc activity (IC50)
T1 construct: Homology directed repair facilitates tagging of endogenous RBM39 by AID, 3xFLAG, AcGFP, or Nanoluciferase; endogenous in cells; host or cells: H1155 RBM39-Nluc knock-in cells
Experimental: NanoLuc was knocked-in to the 3-prime end of the RBM39 gene using the procedure described above yielding H1155 RBM39-Nluc cells. […] Luminescence was recorded by EnVision multimode plate reader (Perkin Elmer). IC50 was determined with GraphPad Prism using baseline correction (by normalizing to DMSO control), the asymmetric (five parameter) equation and least squares fit.

HCC78 and H1373 = test: 3 day viability assay, U2AF1 mutant lung cancer cell lines; assay type: cell-based, human
Excerpt: HCC78 and H1373 non-small cell lung cancer cell lines harbor a heterozygous mutations (C to T) in U2AF1 leading to a Serine to Phenylalanine mutation at position 34. FIG. 19 depicts Sanger sequencing of a RT-PCR product from both cell lines. […] Thus, mutations in splicing factor U2AF1 can be used as a biomarker for treating cancer, in a DCAF15 independent manner or together with the DCAF15 biomarker.

RBM39 G268V-3xFLAG = target: T2, RBM39 G268V-3xFLAG (Homo sapiens, UniProt Q66K64); test: In vivo polyubiquitination of RBM39 G268V; assay type: cell-based; conditions: following indisulam treatment
T2 construct: expressed in transfected cells; host or cells: 293T
Experimental: cDNAs encoding RBM39-3xFLAG, RBM39 G268V-3xFLAG, and DCAF15-V5 were cloned into the pCDNA3.1+vector. pCMV 8XHis Ub was a gift from William Kaelin (Dana Farber Cancer Institute). 0.4 million 293T cells were seeded per well on 6-well plates and allowed to attach overnight. 250 ng of pCMV 8XHis Ub, 500 ng of pCDNA3-DCAF15-V5, 10 ng of either pCDNA3-RBM39-3xFLAG or pCDNA3-RBM39 G268V-3xFLAG were transfected. […] Cells were lifted from the plates by pipetting, pelleted by centrifugation, and washed once with PBS. Purification of His-Ub tagged proteins was performed as described (5).

[1] = target: T3, RBM39-3xFLAG with DDA1, DDB1, CUL4A (Homo sapiens, UniProt Q14498+Q66K64); test: In vitro formation of RBM39-CUL4-DCAF15 complex in lysates; assay type: binding; conditions: indisulam dose-dependent manner
T3 construct: endogenous in cells; host or cells: HCT-116 RBM39-3xFLAG knock-in cells (treated cells in A90)
Experimental: First, we reconstituted formation of the RBM39-CUL4-DCAF15 complex in vitro (FIG. 4, panel A).
(§1) Anti-Flag M2 antibody (Sigma-Aldrich) was coupled to Dynabeads M-270 epoxy beads (Life Technologies) at the ratio of 10 μg of antibody/mg beads. […] Frozen cells were then pulverized in the a cryomill (Retsch) with one 25 mm steel ball and five cycles of three min at 25 Hz with intermittent cooling in liquid nitrogen. […] The lysates were centrifuged at 8000 g for 5 min at 4° C. 12 mg of conjugated Anti-Flag magnetic beads were mixed with clarified lysates for 5 min at 4° C. on a rotating platform, followed by three washes with IP buffer. Bound proteins were eluted with 1 mg/ml 3xFLAG peptide, followed by SDS-PAGE on a 10% Bis Tris gel. After brief electrophoresis, bands containing all the proteins were cut with clean blades. For western blotting of co-immunoprecipitated proteins, anti-DDA1 (ProteinTech, 14995-1-AP, 1:1000), anti-DDB1 (Abcam, ab109027, 1;10000), anti-CUL4A (Cell Signaling, 2699, 1:1000), anti-CUL4B (ProteinTech, 12916-1-AP, 1:1000) were used.

H2073 = test: IC50 assay, NSCLC cell lines (Cell Titer Glo, total ATP); assay type: cell-based, human
Experimental: (§2) Cells were plated at ˜15% confluence in a media comprising 5% concentration of fetal bovine serum supplemented with RPMI, which included 2 mM L-Glutamine in a 96 well dish. […] Following three days of incubation in a 5% CO2 incubator, the total ATP in each well was quantified using Cell Titer Glo (Promega). […] The solid lines represent the medians.

H650 = test: as above; assay type: cell-based, human; conditions: U2AF1 WT (listed twice)
Experimental: as §2

[2] = target: T4, RBM39 G268V-3xFLAG with CUL4 complex (Homo sapiens, UniProt Q14498+Q66K64, G268V); test: Co-immunoprecipitation of RBM39 G268V-3xFLAG from treated cells; assay type: cell-based; conditions: in the presence of indisulam
T4 construct: lysate derived from parental cells, RBM39-3xFLAG cells, or RBM39 G268V-3xFLAG cells; endogenous in cells; host or cells: HCT-116 RBM39 G268V-3xFLAG cells (treated cells in A91; lysates in A95)
Experimental: as §1

HCC2018 = test: IC50 assay, NSCLC cell lines (Cell Titer Glo, total ATP); assay type: cell-based; conditions: Homo sapiens
Experimental: as §2

HCT-116 cells = test: Cell viability assay (CellTiter-Glo); assay type: cell-based, human; conditions: Homo sapiens, read-out: concentration required to reduce the viability by 50% (IC50); parental HCT-116 cells
Experimental: The identity for all human cell lines in this study was confirmed by short tandem repeat (STR) analysis. In addition, all human cell lines were confirmed to be mycoplasma free using a PCR based assay (Genatlantis). HCT-116 cells (ATCC) were grown in DMEM medium with 10% FBS and 2 mM L-glutamine. Lenti-X 293T cells (Clontech) were cultured in DMEM medium with 10% FBS and 2 mM L-glutamine. H1155 cells (a gift from Adi Gazdar and John Minna, UT Southwestern) were cultured in RPMI media with 5% FBS and 2 mM L-glutamine. SF9 cells (a gift from Hongtao Yu, UT Southwestern) were cultured in SF900 II serum free media (Life Technologies).
12-point dose responses were performed on 96-well assay plates with cell plating (1500-4000 cell per well) on day 1, compound addition on day 2, and survival measurement on day 5. Compounds were diluted in DMSO before adding to the cells. Final DMSO concentration was 0.5%. Cell survival assay was performed using CellTiter-Glo Luminescent Cell Viability Assay kit (Promega) that measures cellular ATP content. Luminescence was recorded by EnVison multimode plate reader (Perkin Elmer). IC50 was determined with GraphPad Prism using baseline correction (by normalizing to DMSO control), the asymmetric (five parameter) equation and least squares fit.

[3] = read-out: Indisulam IC50, U2AF1 WT

## NS(=O)(=O)c1ccc(S(=O)(=O)Nc2cccc3c(Cl)c[nH]c23)cc1 [Indisulam, indisulam]
RBM39-Nluc
  DC50: 0.36 µM
HCC78 and H1373
  sensitivity of cancer cell lines harboring a mutation in U2AF1: sensitive
RBM39 G268V-3xFLAG
  RBM39 G268V ubiquitination: not ubiquitinated
[1]
  co-purification of DDA1, DDB1, CUL4A with RBM39-3xFLAG in lysates: co-purified
H2073; Homo sapiens, NCI-H2073, read-out: Indisulam IC50 (log 10) (converted), U2AF1 WT
  IC50: 2.57 µM
H2073; [3]
  IC50: 2.57 µM
H650; H650
  Indisulam IC50 (log 10): −4.839 (log 10) (M)
H650; Homo sapiens, NCI-H650, read-out: Indisulam IC50 (log 10), H650 (converted)
  IC50: 13.6 µM
H650; Homo sapiens, NCI-H650, read-out: Indisulam IC50, H650
  IC50: 13.6 µM
H650; read-out: Indisulam IC50, H650
  IC50: 14.5 µM
[2]
  recruitment of RBM39 G268V to the CUL4 complex: not recruited
HCC2018; read-out: Indisulam IC50 (log 10) (converted), U2AF1 WT
  IC50: 6.48 µM
HCC2018; [3]
  IC50: 6.48 µM
HCT-116 cells
  IC50: 0.56 µM
